Results on 30 compounds are retold here after patent US20090042865A1, “DNA-PK INHIBITORS” (priority 2007, published 2009).

In one test the target is DNA-PK (Homo sapiens, UniProt P78527). As to the kind of experiment: DNA-PK inhibition assay (ELISA, phosphorylation of GST-p53N66). In kind it is biochemical, Mammalian (isolated from HeLa cell nuclear extract). Here is the method: In order to assess the inhibitory action of the compounds against DNA-PK in vitro, the following assay was used to determine IC50 values.
To the assay mix, varying concentrations of inhibitor (in DMSO at a final concentration of 1%) were added. After 10 minutes of incubation, ATP was added to give a final concentration of 50 μM along with a 30mer double stranded DNA oligonucleotide (final concentration of 0.5 ng/ml) to initiate the reaction. After 1 hour with shaking, 150 μl of phosphate buffered saline (PBS) was added to the reaction and 5 μl then transferred to a 96 well opaque white plate containing 45 μl of PBS per well where the GSTp53N66 substrate was allowed to bind to the wells for 1 hour. To detect the phosphorylation event on the serine 15 residue of p53 elicited by DNA-PK a p53 phosphoserine-15 antibody (Cell Signaling Technology) was used in a basic ELISA procedure. An anti-rabbit HRP conjugated secondary antibody (Pierce) was then employed in the ELISA before the addition of chemiluminescence reagent (NEN Renaissance) to detect the signal as measured by chemiluminescent counting via a TopCount NXT (Packard).
The enzyme activity for each compound is then calculated using the following equation: […]
These are determined over a range of different concentrations, normally from 10 μM down to 0.001 μM. Such IC50 values are used as comparative values to identify increased compound potencies.
In general terms: In an ELISA, binding on a coated surface is turned into a signal by an enzyme label.

The next test deals with cells. As to conditions: cited from earlier work.
In a further test the target is PI 3-kinase. As to conditions: stated to be the same as towards DNA-PK; cited from earlier work.
The subject of another test is HeLa cells. Description: Survival Enhancement Ratio, clonogenic survival assay after 2 Gray irradiation. The format is cell-based. As to conditions: prior-art compound of WO 03/024949; concentration not given. How it is done:
The Survival Enhancement Ratio (SER) is a ratio of the enhancement of cell kill elicited by the DNA-PK inhibitor after 2 Grays of irradiation compared to […]. DNA-PK inhibitors were used at a concentration of 25, 50, 100 and/or 500 nM. Radiation was delivered by a Faxitron 43855D machine at a dose rate of 1 Gy pre minute The SER at 2 Gray irradiation was calculated from the formula:
The degree of cell killing was monitored by a standard clonogenic survival assay. Briefly, tissue culture treated 6-well plates were seeded with HeLa cells at an appropriate concentration to give 100-200 colonies per well and returned to the incubator in order to allow the cells to attach. Four hours later, compound or vehicle control was added to the cells. The cells were then incubated for 1 hour in the presence of inhibitor prior to irradiation at 2 Gray using a Faxitron 43855D cabinet X-ray machine. The cells were then incubated for a further 16 hours before the media was replaced with fresh media in the absence of DNA-PK inhibitor. After 8 days, colonies formed were fixed and stained with Giemsa (Sigma, Poole, UK) and scored using an automated colony counter (Oxford Optronics Ltd, Oxford, UK). The data was calculated as described above.

[1] abbreviates: IC50 (mean IC50 of the compounds), mean, DNA-PK from HeLa nuclear extract, 50 μM ATP.
Where [2] appears, read: mean, DNA-PK from HeLa nuclear extract, 50 μM ATP, read-out: IC50 (mean IC50 of the compounds).

Where two headings read alike, the source gives them in different places. Some results are limits rather than exact numbers.

A word on the IC50: it is the midpoint of a concentration-inhibition curve. For the compound `O=c1cc(N2CCOCC2)oc2c(-c3ccc(N4CCNCC4)c4c3sc3ccccc34)cccc12` [Compound 1a, 2-Morpholin-4-yl-8-(1-piperazin-1-yl-dibenzothiophen-4-yl)-chromen-4-one], the IC50 against DNA-PK (setting [1]) is 11 nM; against DNA-PK (IC50, mean IC50) it was less than 50 nM. For the compound `CCN1CCN(c2ccc(-c3cccc4c(=O)cc(N5CCOCC5)oc34)c3sc4ccccc4c23)CC1` [Compound 1b], the IC50 against DNA-PK (setting [1]) is 8 nM; on DNA-PK (IC50, mean IC50), less than 50 nM. Regarding `CC(C)(C)OC(=O)N1CCN(c2ccc(-c3cccc4c(=O)cc(N5CCOCC5)oc34)c3sc4ccccc4c23)CC1` [Compound 1c, 4-[4-(2-Morpholin-4-yl-4-oxo-4H-chromen-8-yl)-dibenzothiophen-1-yl]-piperazine-1-carboxylic acid tert-butyl ester], on DNA-PK (setting [1]), the IC50 turned out to be 447 nM. In the case of `O=c1cc(N2CCOCC2)oc2c(-c3ccc(N4CCN(CCOCCO)CC4)c4c3sc3ccccc34)cccc12` [Compound 1d], the IC50 against DNA-PK (setting [1]) is 8 nM; at DNA-PK (IC50, mean IC50), less than 50 nM. The like results for `CC(C)N1CCN(c2ccc(-c3cccc4c(=O)cc(N5CCOCC5)oc34)c3sc4ccccc4c23)CC1` [Compound 1e] were, in that order, 17 nM and less than 50 nM.

Regarding `O=c1cc(N2CCOCC2)oc2c(-c3ccc(N4CCC(N5CCOCC5)CC4)c4c3sc3ccccc34)cccc12` [Compound 1f], the IC50 was 24 nM on DNA-PK (setting [1]) and less than 50 nM at DNA-PK (IC50, mean IC50). The like results for `CC1CN(c2ccc(-c3cccc4c(=O)cc(N5CCOCC5)oc34)c3sc4ccccc4c23)CC(C)N1` (stereo not shown) [Compound 1g] were, in that order, 12 nM and less than 50 nM. `CC(C)(C)OC(=O)N1CCCN(c2ccc(-c3cccc4c(=O)cc(N5CCOCC5)oc34)c3sc4ccccc4c23)CC1` [Compound 1h] gave an IC50 at DNA-PK (setting [1]) of 86 nM. As to `CC(=O)N1CCN(c2ccc(-c3cccc4c(=O)cc(N5CCOCC5)oc34)c3sc4ccccc4c23)CC1` [Compound 1j], the IC50 against DNA-PK (setting [1]) worked out at 31 nM. At DNA-PK (setting [1]), `O=C(C1CCCO1)N1CCN(c2ccc(-c3cccc4c(=O)cc(N5CCOCC5)oc34)c3sc4ccccc4c23)CC1` (stereo not shown) [Compound 1k] came in with an IC50 of 80 nM.

On to `O=c1cc(N2CCOCC2)oc2c(-c3ccc(N4CCCC(F)C4)c4c3sc3ccccc34)cccc12` (stereo not shown) [Compound 1m], for which the IC50 against DNA-PK (setting [1]) was found to be 136 nM. On to `CN(C)C1CCN(c2ccc(-c3cccc4c(=O)cc(N5CCOCC5)oc34)c3sc4ccccc4c23)CC1` [Compound 1n], for which the IC50 against DNA-PK (setting [1]) is 13 nM; against DNA-PK (IC50, mean IC50) it was less than 50 nM. `CCOC1CCN(c2ccc(-c3cccc4c(=O)cc(N5CCOCC5)oc34)c3sc4ccccc4c23)CC1` [Compound 1o] displayed an IC50 at DNA-PK (setting [1]) of 400 nM.

Compound `COC1CCN(c2ccc(-c3cccc4c(=O)cc(N5CCOCC5)oc34)c3sc4ccccc4c23)CC1` [Compound 1p] gave an IC50 against DNA-PK (setting [1]) of 173 nM. Consider `CC(=O)C(C)N1CCN(c2ccc(-c3cccc4c(=O)cc(N5CCOCC5)oc34)c3sc4ccccc4c23)CC1` (stereo not shown) [Compound 2a], for which the IC50 is less than 50 nM on DNA-PK (mean IC50, read-out: IC50) and 11 nM at DNA-PK (setting [2]).

Take `COCCOCCN1CCN(c2ccc(-c3cccc4c(=O)cc(N5CCOCC5)oc34)c3sc4ccccc4c23)CC1` [Compound 2b]: the IC50 at DNA-PK (mean IC50, read-out: IC50) was less than 50 nM; on DNA-PK (setting [2]), 4 nM. On the same counts, the results for `COCCN1CCN(c2ccc(-c3cccc4c(=O)cc(N5CCOCC5)oc34)c3sc4ccccc4c23)CC1` [Compound 2c] are less than 50 nM and 6 nM.

`CCOCCN1CCN(c2ccc(-c3cccc4c(=O)cc(N5CCOCC5)oc34)c3sc4ccccc4c23)CC1` [Compound 2e]: the IC50 on DNA-PK (mean IC50, read-out: IC50) is less than 50 nM; at DNA-PK (setting [2]), 7 nM. The like results for `CCCN1CCN(c2ccc(-c3cccc4c(=O)cc(N5CCOCC5)oc34)c3sc4ccccc4c23)CC1` [Compound 2f] were, in that order, less than 50 nM and 11 nM. Take `O=c1cc(N2CCOCC2)oc2c(-c3ccc(N4CCN(CC5CC5)CC4)c4c3sc3ccccc34)cccc12` [Compound 2g]: the IC50 is less than 50 nM at DNA-PK (mean IC50, read-out: IC50) and 17 nM on DNA-PK (setting [2]). As for `O=c1cc(N2CCOCC2)oc2c(-c3ccc(N4CCN(CC5CCCO5)CC4)c4c3sc3ccccc34)cccc12` (stereo not shown) [Compound 2i], the IC50 on DNA-PK (setting [2]) is 21 nM. With `CCCOCCN1CCN(c2ccc(-c3cccc4c(=O)cc(N5CCOCC5)oc34)c3sc4ccccc4c23)CC1` [Compound 2j], the IC50 on DNA-PK (setting [2]) was 9 nM.

For `O=c1cc(N2CCOCC2)oc2c(-c3ccc(N4CCN(C5CCCCC5O)CC4)c4c3sc3ccccc34)cccc12` (stereo not shown) [Compound 2k], the IC50 on DNA-PK (setting [2]) amounted to 43 nM. On the same count and under the same terms, the figure for `NCCN1CCN(c2ccc(-c3cccc4c(=O)cc(N5CCOCC5)oc34)c3sc4ccccc4c23)CC1` [Compound 2l] is 7 nM. Consider `O=c1cc(N2CCOCC2)oc2c(-c3ccc(N4CCN(CCO)CC4)c4c3sc3ccccc34)cccc12` [Compound 2m], for which the IC50 on DNA-PK (mean IC50, read-out: IC50) is less than 50 nM; at DNA-PK (setting [2]), 3 nM. In the case of `CC(C)NC(=O)CN1CCN(c2ccc(-c3cccc4c(=O)cc(N5CCOCC5)oc34)c3sc4ccccc4c23)CC1` [Compound 2o], the IC50 on DNA-PK (mean IC50, read-out: IC50) is less than 50 nM; at DNA-PK (setting [2]), 7 nM. Take `CS(=O)(=O)N1CCN(c2ccc(-c3cccc4c(=O)cc(N5CCOCC5)oc34)c3sc4ccccc4c23)CC1` [Compound 3a]: the IC50 is less than 50 nM on DNA-PK (mean IC50, read-out: IC50) and 24 nM at DNA-PK (setting [2]). On the same counts, the results for `CCS(=O)(=O)N1CCN(c2ccc(-c3cccc4c(=O)cc(N5CCOCC5)oc34)c3sc4ccccc4c23)CC1` [Compound 3b] are less than 50 nM and 21 nM. As for `O=c1cc(N2CCOCC2)oc2c(-c3ccccc3)cccc12` [LY294002], in the test on cells, the “sensitisation of cells to the effects of IR” value is “weakly sensitise”. The IC50 at PI 3-kinase is roughly 1000 nM. As for `O=c1cc(N2CCOCC2)oc2c(-c3cccc4c3sc3ccccc34)cccc12` [reference compound], the IC50 against DNA-PK (IC50, prior-art compound of WO 03/024949, methods as below in the patent) lay in the range of 10 to 12 nM. In addition, in the test with HeLa cells, the SER is recorded as 1.3.
